Test results taken from patent US9611278B2 (Merck Sharp & Dohme Corp., priority 2013, dated 2017).

Experiments:
[1] = target: T1, sGC α1/β1 heterodimer stably expressed in CHO-K1 cells (CHO-K1/sGC) (Homo sapiens, UniProt Q02108+Q02153); experiment: Cell-based sGC Functional Assay (CASA Assay); conditions: for Emax: CHO-K1, activation as percentage of maximum cGMP production of Compound A (set to 100%), read-out: % Act.; for EC50: inflection point of cGMP generation in CHO-K1/sGC cells, 4P fit, 1 hr at 37° C., read-out: IP
T1 construct: expressed in transfected cells
T1 sequence (Q02108 1-690): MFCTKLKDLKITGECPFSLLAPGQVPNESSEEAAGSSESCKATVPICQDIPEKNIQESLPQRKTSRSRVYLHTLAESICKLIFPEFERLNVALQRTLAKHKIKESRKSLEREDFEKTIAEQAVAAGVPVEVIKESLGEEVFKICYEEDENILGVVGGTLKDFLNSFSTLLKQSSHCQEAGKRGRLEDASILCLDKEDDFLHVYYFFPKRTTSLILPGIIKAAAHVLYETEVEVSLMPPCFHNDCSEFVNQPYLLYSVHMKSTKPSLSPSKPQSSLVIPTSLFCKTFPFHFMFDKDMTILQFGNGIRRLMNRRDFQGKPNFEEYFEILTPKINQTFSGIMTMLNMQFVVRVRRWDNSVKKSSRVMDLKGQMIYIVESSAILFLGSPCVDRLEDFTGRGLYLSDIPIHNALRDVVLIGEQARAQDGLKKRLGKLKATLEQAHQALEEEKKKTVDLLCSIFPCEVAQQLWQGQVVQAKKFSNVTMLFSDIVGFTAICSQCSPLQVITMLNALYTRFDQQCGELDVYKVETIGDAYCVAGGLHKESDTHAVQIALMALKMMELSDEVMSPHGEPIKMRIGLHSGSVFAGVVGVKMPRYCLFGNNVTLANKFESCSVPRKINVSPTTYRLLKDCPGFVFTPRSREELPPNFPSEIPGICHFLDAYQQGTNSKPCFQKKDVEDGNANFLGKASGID
T1 sequence (Q02153 1-619): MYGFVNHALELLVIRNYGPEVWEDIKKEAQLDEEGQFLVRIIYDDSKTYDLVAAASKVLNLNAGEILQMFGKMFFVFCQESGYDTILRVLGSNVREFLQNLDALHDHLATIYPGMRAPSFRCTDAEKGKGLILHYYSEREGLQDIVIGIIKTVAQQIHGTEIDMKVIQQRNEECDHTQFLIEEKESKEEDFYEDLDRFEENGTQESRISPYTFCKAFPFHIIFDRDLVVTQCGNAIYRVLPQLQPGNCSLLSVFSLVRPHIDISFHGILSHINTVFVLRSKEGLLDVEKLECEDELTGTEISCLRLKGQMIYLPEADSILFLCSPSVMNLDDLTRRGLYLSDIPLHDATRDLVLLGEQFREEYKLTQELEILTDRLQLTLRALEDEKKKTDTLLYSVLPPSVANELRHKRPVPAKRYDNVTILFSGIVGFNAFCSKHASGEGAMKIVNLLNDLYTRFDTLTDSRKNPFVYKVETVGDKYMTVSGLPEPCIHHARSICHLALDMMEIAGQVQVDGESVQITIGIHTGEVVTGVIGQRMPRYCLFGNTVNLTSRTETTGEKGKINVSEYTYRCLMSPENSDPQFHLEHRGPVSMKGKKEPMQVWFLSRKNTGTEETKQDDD
Outline: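 CHO-K1 cells stably expressing human sGC α1/β1 were incubated with compound for 1 h at 37 °C in buffer with 0.5 mM IBMX and 2.5% DMSO, with or without 1 μM DETA-NO. Intracellular cGMP was read by HTRF and expressed as percentage of maximal activation by reference activator Compound A. Values came from a 4-parameter fit.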

[2] = tested on: Spontaneously hypertensive rats (SHR); experiment: Acute Efficacy in Spontaneously Hypertensive Rats (SHR); type: in vivo, rat; conditions: single oral dose
Description: Spontaneously hypertensive rats (SHR, male, Charles River) were implanted with DSI TA11PA-C40 telemetry device (Data Sciences, Inc., St. Paul, Minn.) under isoflurane or ketamine/metomidine anesthesia. The telemetry unit catheter was inserted into the descending aorta via the femoral artery and the telemetry device was implanted subcutaneously in the left flank area. Animals were allowed to recover from surgery for 14 days before the start of any studies. Blood pressure, heart rate, and activity signals from conscious, freely moving rats were recorded continuously for 30 seconds every 10 min. On the day prior to administration of compound, a single oral dose of vehicle (10% transcutol/20% Cremophor/70% water) was administered to all animals to establish baseline control data. The blood pressure lowering efficacy of compound (PO) or vehicle was evaluated following a single oral gavage. Data were collected as hourly averages, and changes in blood pressure were calculated by subtracting control baseline data on an hourly basis. Animals were maintained on normal diet with a 12 hour light-dark cycle.
Maximum peak decreases of systolic blood pressure (SBP) in SHR at a particular P.O. dose (mpk milligrams per kilogram) for the following representative compounds are provided in Table 9. Category A=SBP in SHRs <15 mmHg; Category B=SBP in SHRs 15-25 mmHg; Category C=SBP in SHRs >25 mmHg

With [2H]C([2H])([2H])n1ncc2c(-c3nc(N)c4c(n3)NC(=O)C4(c3nnnn3C)C3CC3)nc(CCC(F)(F)C(F)(F)F)nc21 (stereo not drawn) [Example 25, 4-Amino-5-cyclopropyl-5-(1-methyl-1H-tetrazol-5-yl)-2-(1-(methyl-d3)-6-(3,3,4,4,4-pentafluorobutyl)-1H-pyrazolo[3,4-d]pyrimidin-4-yl)-5,7-dihydro-6H-pyrrolo[2,3-d]pyrimidin-6-one] the Emax [1] was 93%, the EC50 [1] was 0.991 µM and the “Category: maximum peak decrease of systolic blood pressure (SBP) in SHR” value (shortened to “Category: maximum peak decrease”) ([2]; P.O. 3 mpk) was “C (Category C=SBP in SHRs >25 mmHg)”.

Cn1ncc2c(-c3nc(N)c4c(n3)NC(=O)C4(C)c3ccc(F)cn3)nc(CC3CC(F)(F)C3)nc21 (stereo not drawn) [Example 3, 4-Amino-2-(6-((3,3-difluorocyclobutyl)methyl)-1-methyl-1H-pyrazolo[3,4-d]pyrimidin-4-yl)-5-(5-fluoropyridin-2-yl)-5-methyl-5,7-dihydro-6H-pyrrolo[2,3-d]pyrimidin-6-one] was tested, and the Emax [1] was 117%, the EC50 [1] was 0.104 µM and the “Category: maximum peak decrease” value ([2]; P.O. 0.3 mpk) was “C (Category C=SBP in SHRs >25 mmHg)”.

For Cn1ccc2c(-c3nc(N)c4c(n3)NC(=O)C4(C)c3nnc(C4CC4)o3)nc(CCC(F)(F)C(F)(F)F)nc21 (stereo not drawn) [Example 86, 4-Amino-5-(5-cyclopropyl-1,3,4-oxadiazol-2-yl)-5,7′-dimethyl-2′-(3,3,4,4,4-pentafluorobutyl)-5,7-dihydro-6H,7′H-[2,4′-bipyrrolo[2,3-d]pyrimidin]-6-one], the Emax [1] was 104%, the EC50 [1] was 0.41 µM and the “Category: maximum peak decrease” value ([2]; P.O. 1 mpk) was “B (Category B=SBP in SHRs 15-25 mmHg)”.

With Cn1ncc2c(-c3nc(N)c4c(n3)NC(=O)C4(c3nnc(C4CC4)o3)C3CC3)nc(CCC(F)(F)C(F)(F)F)nc21 (stereo not drawn) [Example 44, 4-Amino-5-cyclopropyl-5-(5-cyclopropyl-1,3,4-oxadiazol-2-yl)-2-(1-methyl-6-(3,3,4,4,4-pentafluorobutyl)-1H-pyrazolo[3,4-d]pyrimidin-4-yl)-5,7-dihydro-6H-pyrrolo[2,3-d]pyrimidin-6-one] the Emax [1] was 113%, the EC50 [1] was 0.225 µM and the “Category: maximum peak decrease” value ([2]; P.O. 1 mpk) was “B (Category B=SBP in SHRs 15-25 mmHg)”.

For [2H]C([2H])([2H])n1ncc2c(-c3nc(N)c4c(n3)NC(=O)C4(C)c3cn(CC4CC4)nn3)nc(CCC(F)(F)C(F)(F)F)nc21 (stereo not drawn) [Example 63, 4-Amino-5-(1-(cyclopropylmethyl)-1H-1,2,3-triazol-4-yl)-5-methyl-2-(1-(methyl-d3)-6-(3,3,4,4,4-pentafluorobutyl)-1H-pyrazolo[3,4-d]pyrimidin-4-yl)-5,7-dihydro-6H-pyrrolo[2,3-d]pyrimidin-6-one], the Emax [1] was 93%, the EC50 [1] was 0.235 µM and the “Category: maximum peak decrease” value ([2]; P.O. 1 mpk) was “A (Category A=SBP in SHRs <15 mmHg)”.
